Results on 7 molecules are retold here after PubChem BioAssay (NCI).

Each structure is given as a SMILES string.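 Method: 48-hour compound exposure of cells in 96-well plates, five concentrations, linear interpolation of endpoints. TGI marks complete inhibition of growth.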

Holding throughout (assay): NCI-60 cell line screen, 48 h
Assay [1] relates to NCI-H226 lung.
The subject of assay [2] is IGROV1 ovarian.
In assay [3] the test system is HCT-116 colon.
The subject of assay [4] is RXF 393 renal.
The test system of assay [5] is MDA-MB-435.
Assay [6] deals with UACC-62 melanoma.
The test system of assay [7] is PC-3 prostate.
The test system of assay [8] is K-562 leukemia.
Assay [9] relates to SK-MEL-28 melanoma.
In assay [10] the test system is NCI/ADR-RES ovarian.
Assay [11] deals with MALME-3M melanoma.
Assay [12] relates to OVCAR-4 ovarian.
Assay [13] concerns TK-10 renal.
The test system of assay [14] is SR leukemia.
The test system of assay [15] is MCF7 breast.
Assay [16] has as its system SK-MEL-2 melanoma.
The subject of assay [17] is HCT-15 colon.
For assay [18], the system named is OVCAR-3 ovarian.
Assay [19] deals with MOLT-4 leukemia.

For the molecule `COC(=O)c1ccccc1C1CN=NC12Cc1cc(C)ccc1C2=O` (configuration not stated), the TGI in [1], in assay [2], in [3], in assay [4], in assay [5] and in assay [6] was more than 100 µM in each case. In addition, the TGI in [7], in assay [8], in [9], in [10], in assay [11] and in assay [12] was more than 100 µM in each case. Besides, the TGI in assay [13] was more than 100 µM; in [14], more than 100 µM; in assay [15], 75.4 µM; in assay [16], more than 100 µM; in assay [17] it was more than 100 µM; in assay [18], more than 100 µM. Further, the TGI in [19] is more than 100 µM.

Regarding `Cc1ccnc(NC(NC(=O)c2ccccc2)(C(F)(F)F)C(F)(F)F)c1`, the TGI in assay [1], in assay [2], in assay [3], in assay [4], in assay [5] and in [6] was more than 100 µM each time. The TGI in assay [7], in assay [8], in assay [9], in assay [10], in assay [11] and in assay [12] was more than 100 µM in each case. Besides, the TGI in assay [13], in assay [14], in [15], in assay [16], in assay [17] and in assay [18] was more than 100 µM each time. The TGI in assay [19] is more than 100 µM.

As to `N[C@H]1CCCC[C@@H]1N1C(=O)c2ccccc2C1(O)c1ccc(Cl)cc1` (some centres not stated), the TGI in assay [1] stood at 31.3 µM; in assay [2], 25.7 µM; in assay [3], 21.9 µM; in assay [4], 20.4 µM; in assay [5], 21.1 µM; in assay [6], 25.9 µM. In addition, the TGI in assay [7] was determined as 24.4 µM; in [8], 13.2 µM; in assay [9] it was 10.4 µM; in assay [10], 30.8 µM; in assay [11], 27.8 µM; in [12], 24.6 µM. The TGI was found to be 26 µM in assay [13]; 29.9 µM in assay [14]; 27.5 µM in assay [15]; 30.6 µM in [16]; 26.7 µM in [17]; 21.5 µM in assay [18]. Moreover, in assay [19], the TGI was 19.2 µM.

On to `CCCC(=O)OC1C(CO)OC(n2cc(F)c(=O)[nH]c2=O)C1F` (configuration not stated), for which the TGI in assay [1], in assay [2], in [3], in assay [4], in assay [5] and in [6] was more than 100 µM throughout. Besides, the TGI in assay [7], in [9], in assay [10], in assay [11], in assay [12] and in [13] was more than 100 µM throughout. Besides, the TGI in assay [14], in [15], in [16], in [17], in assay [18] and in assay [19] was more than 100 µM throughout.

Regarding `C=C(Br)CNC(=O)CCC(=O)NCC(=C)Br`, the TGI in [1], in assay [2], in assay [3], in assay [4], in assay [5] and in [6] was more than 100 µM in each case. Further, the TGI in assay [7], in [8], in [9], in assay [10], in [11] and in assay [12] was more than 100 µM throughout. Also, the TGI in [13], in assay [14], in assay [15], in assay [16], in assay [17] and in [18] was more than 100 µM in each case. Besides, the TGI in [19] was more than 100 µM.

Regarding `C/C(=N\NC(=S)NCCCNC(=S)N/N=C(\C)c1ccccn1)c1ccccn1`, the TGI in [1] was more than 29.6 µM; in [2], 37.4 µM; in assay [3] it was 24 µM; in assay [4] it was 14.7 µM; in assay [5] it was more than 43.5 µM; in assay [6], 14.2 µM. Moreover, the TGI in [7] was more than 91.5 µM; in assay [8], more than 100 µM; in [9], more than 100 µM; in assay [10], 8.19 µM; in assay [11] it was 17.5 µM; in [12] it was more than 54 µM. Further, the TGI in assay [13] is 24.2 µM; in assay [14], 6.19 µM; in assay [15], more than 50.6 µM; in assay [16], more than 50.9 µM; in [17], more than 30.7 µM; in [18] it was 20.7 µM. Moreover, the TGI in assay [19] is more than 100 µM.

Take `C=C(C)[C@@H]1CCC2=C[C@H](OC2=O)[C@@]2(C)C[C@@H]2C2=CC(C)=C(O2)[C@H]1O`: the TGI in assay [1], in [2], in [3], in assay [4], in assay [5] and in [6] was more than 75 µM throughout. Also, the TGI in [7], in assay [8], in assay [9], in assay [10], in assay [11] and in assay [12] was more than 75 µM in each case. The TGI in assay [13], in assay [14], in assay [15], in [16], in [17] and in assay [18] was more than 75 µM throughout. For the same molecule, in [19], the TGI was more than 75 µM.
